Data taken from patent US20100291086A1, “USE OF ESTROGEN AND ANDROGEN BINDING PROTEINS IN METHODS AND COMPOSITIONS FOR TREATING GYNAECOLOGICAL CANCERS” (priority 2007, published 2010).

Assays:
[1] = women, same study; cited from earlier work
invasive breast cancer = settings: women; cited from earlier work
LNCaP cells = test: In vitro growth proliferation study, calcein uptake assay; assay type: cell-based, human; settings: nilutamide 0.1 μM, 120 hours
Protocol: The effects of the polypeptide on the growth and proliferation of the cells was then assessed. […] In addition, LNCaP cells were also cultured in the presence of the non-steroidal antiandrogen nilutamide The human prostate cancer cell line, LNCaP was obtained from American Type Tissue Collection (ATCC) and was routinely cultured in growth medium containing phenol red RPMI 1640 (Invitrogen, Auckland, New Zealand) supplemented with 10% fetal bovine serum (FBS, GIBCO) and 1% antibiotic/antimycotic mixture (Invitrogen, Auckland, New Zealand). Cells were maintained at 37° C. in 5% CO2. […] In addition as control, 6 wells were treated with the nonsteroidal antiandrogen nilutamide (0.1 μM) as well as 6 wells with 10% charcoal stripped serum, to simulate steroid free conditions. After 120 hours in culture, cells were washed once with PBS and labelled with calcein ([…], Molecular Probes, Oregon, USA) at 1 mM final concentration in PBS. Calcein positive cells were detected using a FLUOstar OPTIMA plate reader (BMG Labtech, Victoria, Australia). Experiments were performed in 6 replicates for each treatment condition. Data are presented as mean±SEM unless otherwise indicated.

breast cancer = settings: adjuvant tamoxifen for about 5 years, women with cancers expressing the estrogen receptor; cited from earlier work

O=C(c1ccc(OCCN2CCCCC2)cc1)c1c(-c2ccc(O)cc2)sc2cc(O)ccc12 [Raloxifene]
increase of risk of fatal stroke [1]: 49%
reduction of risk of invasive breast cancer (invasive breast cancer): 44%

CC1(C)NC(=O)N(c2ccc([N+](=O)[O-])c(C(F)(F)F)c2)C1=O [nilutamide]
reduction of prostate cancer cell proliferation (LNCaP cells): 80%

CC/C(=C(\c1ccccc1)c1ccc(OCCN(C)C)cc1)c1ccccc1 [tamoxifen]
reduction of annual breast cancer death rate (breast cancer): 31%
